From patent publication US9096550B2, “Bryostatin analogues and methods of making and using thereof” (UNIVERSITY OF UTAH RESEARCH FOUNDATION, priority 2008, dated 2015)

Experiments:
Assay type in all cases: cell-based, human
U937 cells = assay: Attachment of U937 cells; conditions: for attachment of U937 cells: compound alone, 72 hours
Method: U937 cells (Sundstrom, C.; Nilsson, K.: Establishment and characterization of a human histiocytic lymphoma cell line (U-937). Int. J. Cancer 1976, 17: 565-577.), purchased from ATCC (Manassas, Va.) and cultured in RPMI-1640 medium supplemented with 10% FBS (ATCC, Manassas, Va.), were plated in 35 mm dishes at a density of 2×10^5 living cells/ml and treated with different concentrations of the drugs or DMSO. After 72 hours, the number of cells in the supernatant (non-attached cells) and the number of attached cells (after trypsinization) were counted using a Beckman particle counter (Beckman Coulter Inc., Fullerton, Calif.). The number of attached cells is expressed as percent of total cells (FIGS. 8-10).
(§1) U937 cells were treated with PMA (0.1-100 nM), bryostatin 1 (1-1000 nM), the indicated compound (1-1000 nM), 10 nM PMA with different concentrations of bryostatin 1 (1-1000 nM) or 10 nM PMA with different concentrations of indicated compound (1-1000 nM) for 72 hours. The number of attached cells and total cells were counted and the attached cells were graphed as percent of total cells. The bars and error bars represent the average and the standard error of the mean of five independent experiment (FIGS. 8-10).
(§2) U937 cells (Sundstrom and Nilsson, 1976), purchased from ATCC (Manassas, Va.) and cultured in RPMI-1640 medium supplemented with 10% FBS (ATCC, Manassas, Va.), were plated in 35 mm dishes at a density of 1×10^5 living cells/ml and treated with different concentrations of the drugs or DMSO. After 72 hours, the number of cells in the supernatant (non-attached cells) and the number of attached cells (after trypsinization) were counted using a particle counter. The number of attached cells is expressed as percent of total cells.
U937 cells were treated with PMA (0.01-100 nM), bryostatin1 (0.1-1000 nM), analogue 12 (MERLE 28) (0.1-1000 nM), 10 nM PMA with different concentrations of bryostatin 1 (0.1-1000 nM) or 10 nM PMA with different concentrations of analogue 12 (0.1-1000 nM). The number of attached cells and total cells were counted and the attached cells were graphed as percent of total cells. The bars and error bars represent the average and the standard error of the mean of at least three independent experiments.
as §2, with “U-937” for “U937”
as §1, with “U-937” for “U937”, “at least three” for “five”, “experiments.” for “experiment (FIGS. 8-10).”

LNCaP cells = assay: Proliferation of LNCaP cells (Incucyte confluency); conditions: for effect on LNCaP cell growth: compound alone, confluency at 80 hrs
Method: FIGS. 12A-D show the effect of different compounds on the proliferation and apoptosis of LNCaP cells. […] Time-elapsed images were taken with an Incucyte imaging system every hour for 4 days. The proliferation of LNCaP cells is presented as increase in confluency (read by the instrument) at 80 hrs. Data represent the means+SEM of three independent experiments. […] Apoptosis was measured 2 days after treatment by flow cytometry using 7-AAD and Yo-Pro-1 as described in Materials and Methods. Data represent the means+SEM of three independent experiments.
FIGS. 13A and 13B show the proliferation and morphology of LNCaP cells detected by Incucyte. LNCaP cells were treated with DMSO as control, 300 nM PMA, 1000 nM bryostatin 1 or the bryologue MERLE 21, or with 300 nM PMA in combination with 1000 nM bryostatin 1 or the bryologue MERLE 21. Time-elapsed images were taken by the Incucyte imaging system every hour. […] The arrow indicates the time of treatment. Data are representative of three independent experiments.
The extent of confluency of LNCaP cells (from ATCC, Manassas, Va.) and the morphological changes after treatment were followed in real time using Incucyte (Essen Instruments, Ann Arbor, Mich.). Images of LNCaP cells plated into 24 well plates were taken every 1 hour by the instrument before and after treatment for a total of 4 days. The confluency of the cells was calculated by the instrument's program. The proliferation of LNCaP cells was expressed as the difference in cell confluency before and after treatment.

PKC delta = assay: Phosphorylation of PKC delta at Y311 in LNCaP cells (western blot)
Method: FIGS. 14A-C show the induction of cFos and phosphorylation of PKC at Y311 in LNCaP cells. […] The proteins from the lysates were separated by 10% SDS-PAGE, electroblotted to nitrocellulose membranes and probed with anti-cFos primary and anti-rabbit secondary antibodies, followed by ECL visualization. Data are representative of four independent experiments. […] The cFos signal was normalized to the β-actin signal to correct for loading and the response induced by 100 nM PMA at 2 hrs was taken as 100%. Data represent the means+SEM of four independent experiments. […] Data represent the means+SEM of three independent experiments.
LNCaP cells treated for 48 hours with the different drugs or with DMSO as control were washed and re-suspended in phosphate buffered saline. Yo-Pro-1 (Invitrogen, Carlsbad, Calif.) was added to a final concentration of 1 μM and the cells were incubated for 20 min at 4° C. in the dark. 7-Aminoactinomycin D (7-AAD) (Invitrogen, Carlsbad, Calif.) was then added at a 5 μg/mL final concentration 10 minutes before analysis by flow cytometry using the FACSCalibur system (Becton Dickinson, Mountain View, Calif.). Data were analyzed with FlowJo 7 (Tree Star Inc., Ashland, Oreg.). The Yo-Pro-1 positive cells were considered apoptotic and were expressed as % of total cells. […]

| Compound | block of PMA-induced attachment of U937 cells (U937 cells; 10 nM PMA with different concentrations of compound) | attachment of U937 cells (U937 cells) | attachment of U937 cells (U937 cells; listed as Bryostatin 1) | block of the PMA inhibition of LNCaP cell growth (LNCaP cells; 300 nM PMA combined with 1000 nM compound, 80 hrs) | effect on LNCaP cell growth (LNCaP cells) | phosphorylation of PKC delta at Y311 (PKC delta) |
| --- | --- | --- | --- | --- | --- | --- |
| CCC/C=C/C=C/C(=O)O[C@H]1/C(=C/C(=O)OC)C[C@H]2C[C@H]([C@@H](C)O)OC(=O)C[C@H](O)C[C@@H]3C[C@H](OC(C)=O)C(C)(C)[C@](O)(C[C@@H]4C/C(=C/C(=O)OC)C[C@H](/C=C/C(C)(C)[C@]1(O)O2)O4)O3 [bryostatin 1] | blocks the effect of the phorbol ester in a dose-dependent manner | much diminished effect | much less effect on either response | blocked the inhibition of LNCaP cell growth by PMA | little effect | only very weak phosphorylation |
| CCCCCCCCCCCCCC(=O)O[C@@H]1[C@@H](C)[C@@]2(O)[C@@H](C=C(CO)C[C@]3(O)C(=O)C(C)=C[C@@H]23)[C@@H]2C(C)(C)[C@]12OC(C)=O [PMA] | – | induces attachment | – | – | marked inhibition of cell proliferation | rapid phosphorylation |
